In patent US20090318461A1, “CRYSTALLINE POLYMORPHISM OF 5-METHYL-2-(PIPERAZIN-1-YL) BENZENESULFONIC ACID” (priority 2006, published 2009):

Key:
cardiomyocytes = conditions: cited from earlier work
[1] = Measurement of moisture sorption at each relative humidity (water vapor sorption apparatus SGA-100); assay type: physicochemical; conditions: for moisture sorption (weight increase) at relative humidity 50%: 50% RH; for weight change when humidity was reduced from 95% RH to 5% RH after moisture absorption: humidity decrease 95% RH to 5% RH; for hygroscopicity: from moisture sorption isotherm
Method: In the present invention, when moisture sorption at each relative humidity becomes not more than 0.03% in 5 min, or when 3 hours have passed at each relative humidity, the range of relative humidity being from 0% to 95%, the humidity is increased or decreased at 5% intervals, and the moisture sorption isotherms at each relative humidity is obtained gravimetrically by measuring the mass change of a sample.
The above-mentioned moisture sorption can be measured using, for example, SGA-100 type water vapor sorption apparatus (manufactured by VTI) as shown in the Examples. While the error in the relative humidity values depends on the performance of the apparatus, it is about ±1% using this apparatus.
The “moisture sorption” in the present invention refers to the values calculated by the following equation:
moisture sorption (%)=((RM−DM)/DM))*100
wherein DM: sample weight (mg) after sufficient drying at relative humidity 0% RM: sample weight (mg) in the equilibrium state at various relative humidities
For moisture sorption isotherms, when weight variation under each relative humidity condition becomes not more than 0.03% in 5 min, or when 3 hours have passed at each relative humidity, the range of relative humidity being from 0% to 95%, the humidity is increased or decreased at 5% intervals, and the moisture sorption isotherms at each relative humidity is obtained gravimetrically by measuring the mass change of a sample. The “RH” in the preset Examples means “relative humidity”.
5-Methyl-2-(piperazin-1-yl)benzenesulfonic acid monohydrate was dried for 60 min by heating in a sample booth at 80° C. under nitrogen substitution. The sample was used as sample 7 (type-I anhydrate crystal), and measured for moisture sorption from 5% RH.
The sample 2 (type-II anhydrate crystal) obtained in Example 2 was dried for 60 min by heating in a sample booth at 80° C. under nitrogen substitution, and measured for moisture sorption from 5% RH.

[2] = Thermal analysis (DSC822e) of monohydrate crystals; assay type: physicochemical; conditions: 25-300° C., 20° C./min, dry nitrogen gas
Method: In Examples 3, 4 and Experimental Examples 5, 6, each crystal forms was confirmed by powder X-ray diffractometer (manufactured by Bruker) GADDS detector system and thermal analysis equipment (manufactured by Mettler-Toledo) DSC822e system.
For thermal analysis, the measurement was performed in a dry nitrogen gas stream (50 mL/min) from 25° C. to 300° C. at a temperature rise rate of 20° C./min.
Using the solids obtained in Examples 3 and 4 as sample 8 (type-II monohydrate crystal) and sample 9 (type-III monohydrate crystal), respectively, the thermal analysis was performed under the following conditions.
apparatus: DSC822e manufactured by Metter-Toledo temperature rise rate: 20° C./min atmosphere: dry nitrogen gas 50 mL/min measurement temperature: 25-300° C.

[3] = humidity increase from 5% RH to 95% RH

Cc1ccc(N2CCNCC2)c(S(=O)(=O)O)c1 [compound A, 5-methyl-2-(piperazin-1-yl)benzenesulfonic acid]
suppression of excessive influx of calcium ions into cardiomyocytes (cardiomyocytes): remarkably suppresses

Cc1ccc(N2CCNCC2)c(S(=O)(=O)O)c1 [type-I anhydrate crystal, 5-methyl-2-(piperazin-1-yl)benzenesulfonic acid anhydrate]
moisture sorption (weight increase) at relative humidity 50% ([1]; humidity increase from 5% RH to 95% RH, listed as sample 7): about 6.0%
weight change when humidity was reduced from 95% RH to 5% RH after moisture absorption [1]: weight change was not observed
relative humidity from which moisture absorption was shown [1, 3]: 10 % RH

Cc1ccc(N2CCNCC2)c(S(=O)(=O)O)c1 [type-II anhydrate crystal, 5-methyl-2-(piperazin-1-yl)benzenesulfonic acid anhydrate]
moisture sorption in the range of 0-50% RH ([1]; 0-50% RH, humidity increase from 5% RH to 95% RH): about 2.0%
moisture sorption (weight increase) at relative humidity 50% [1, 3]: not more than 2%
weight increase around 60% RH ([1]; around 60% RH, humidity increase from 5% RH to 95% RH): about 6.5%
hygroscopicity [1]: less hygroscopic
hygroscopicity ([1]; listed as sample 2): hardly present
weight change when humidity was reduced from 95% RH to 5% RH after moisture absorption [1]: weight change was not observed

Cc1ccc(N2CCNCC2)c(S(=O)(=O)O)c1 [type-II monohydrate crystal, 5-methyl-2-(piperazin-1-yl)benzenesulfonic acid monohydrate]
crystal stability by thermal analysis (no noticeable endothermic and exothermic peaks up to around 80° C.) [2]: stable
